Measured values reported in patent US20240287138A1, “CYCLIC PEPTIDES FOR INHIBITING TNF RECEPTOR 1 ACTIVITY” (Merck Sharp & Dohme LLC, priority 2023, published 2024).
Numbered stars: 1 amine (or outer) side, 2 acyl side, 3 side chain; on linkers, the order of the positions; unused ones are H or OH. Bridge positions count the residues as written; N and C are the ends. Square brackets hold non-standard residues; d marks the D form. Peptide text beside a SMILES is read from it. * marks the point of attachment. Trp(βS-Me,7-OMe) = COc1cccc2c([C@H](C)[C@H](N)C(=O)O)c[nH]c12; Ala(1-bicyclo(1.1.1)pentyl) = N[C@@H](CC12CC(C1)C2)C(=O)O; Trp(7-Br) = N[C@@H](Cc1c[nH]c2c(Br)cccc12)C(=O)O; Trp(7-Cl) = N[C@@H](Cc1c[nH]c2c(Cl)cccc12)C(=O)O; Phe(4-CONH2) = NC(=O)c1ccc(C[C@H](N)C(=O)O)cc1; Phe(4-COOH) = N[C@@H](Cc1ccc(C(=O)O)cc1)C(=O)O; Trp(7-aza) = N[C@@H](Cc1c[nH]c2ncccc12)C(=O)O; Pip(5R-OH) = O=C(O)[C@@H]1CC[C@@H](O)CN1; X1 = O=C([C@@H]1CC[C@H](N[*:1])C1)[*:2]; Pip(4-aza) = O=C(O)[C@@H]1CNCCN1; hArg = N=C(N)NCCCC[C@H](N)C(=O)O; 4Pal = N[C@@H](Cc1ccncc1)C(=O)O; NMeE = CN[C@@H](CCC(=O)O)C(=O)O; αMeS = C[C@](N)(CO)C(=O)O; Carboxymethyl = O=C(O)C*; Nle = CCCC[C@H](N)C(=O)O; Sar = CNCC(=O)O

Key:
[1] = biological target: T1, TNFα-induced NF-κB signal transduction pathway (TNFR1 signaling) in THP-1 cells (Homo sapiens, UniProt P19438); experiment: THP-1 Lucia NF-κB reporter cell assay, inhibition of TNFα-induced NF-κB signaling; type: cell-based; conditions: THP-1 NF-κB Lucia reporter cells, 10 ng/mL TNFα, 16-18 h, secreted luciferase; read-out: THP-1 IC50
T1 sequence (P19438 30-455): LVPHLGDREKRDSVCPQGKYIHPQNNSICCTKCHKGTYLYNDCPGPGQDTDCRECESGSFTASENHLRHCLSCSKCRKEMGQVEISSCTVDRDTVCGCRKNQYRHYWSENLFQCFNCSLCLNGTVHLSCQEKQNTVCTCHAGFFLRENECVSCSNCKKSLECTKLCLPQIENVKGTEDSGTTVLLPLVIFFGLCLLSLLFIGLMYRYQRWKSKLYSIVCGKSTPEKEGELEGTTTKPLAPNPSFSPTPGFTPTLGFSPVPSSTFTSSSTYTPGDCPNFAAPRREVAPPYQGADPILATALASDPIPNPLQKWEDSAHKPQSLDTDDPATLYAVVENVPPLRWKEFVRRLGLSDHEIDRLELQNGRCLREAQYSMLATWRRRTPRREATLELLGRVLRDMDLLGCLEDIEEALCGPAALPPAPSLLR
Method in brief: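 Macrocyclic peptides were preincubated 1 h at 37 °C with THP-1 NF-κB-Lucia reporter cells (20,000 cells/well) in antibiotic-free RPMI 1640/10% FBS, then stimulated with 10 ng/mL human TNFα overnight (16-18 h). Secreted luciferase in supernatant was read by luminescence; IC50 from 4-parameter logistic fits.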

[2] = biological target: T2, human TNFR1 extracellular domain (ECD) protein (Homo sapiens, UniProt P19438); experiment: SPR binding affinity to captured human TNFR1 ECD
T2 construct: HRV 3C protease cleavage site (C); 6His (C, cleaved yes); made in house; host or cells: Sf21 insect cells (baculovirus), secreted
T2 sequence (P19438 30-211): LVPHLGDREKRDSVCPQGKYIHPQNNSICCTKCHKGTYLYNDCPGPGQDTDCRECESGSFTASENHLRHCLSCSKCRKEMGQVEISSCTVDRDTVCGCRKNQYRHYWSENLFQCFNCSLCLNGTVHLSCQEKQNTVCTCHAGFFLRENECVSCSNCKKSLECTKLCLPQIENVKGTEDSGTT
Procedure: (§1) B. Procedure for Binding Affinity and Selectivity measured by SPR
(§2) Affinity and selectivity for hTNFR1 and TNFR2 was determined using SPR. Human TNFR1 or TNFR2 genes (extracellular domain only) were synthesized with a C-terminal Avi-tag, HRV 3C protease cleavage site followed by a 6His-tag for affinity purification. The final gene product was cloned into pBAC™-1 vector (Millipore Sigma) for expression testing in insect cells. Constructs were transfected into Sf21 cells for baculovirus generation followed by protein expression analysis in Sf21 and Tni cell lines. Large scale expression in Sf21 cells was performed using baculovirus infected insect cells (BIICs) infected at a MOI=2.0 grown for 72 h. Target proteins secreted into the media were harvested via centrifugation and concentrated using diafiltration. TNFR was purified by immobilized metal ion affinity chromatography (IMAC) using a Ni-Sepharose HisTrap™ column (Cytiva™). Isolated TNFR had His tag removed using HRV 3C protease followed by additional purification using Ni-NTA chromatography. Biotinylation was performed on Ni-NTA flow-through fractions concentrated to 45 μM and treated with BirA ligase (1:100, μg/μg ratio) in 50 mM Tris pH 7.5, 150 mM NaCl, 50 μM biotin, 10 mM magnesium acetate, 10 mM ATP at 4° C. for 20 h. Final purification of biotin-TNFR and buffer exchange into 20 mM HEPES pH 7.5, 150 mM NaCl was performed using a HiLoad® Superdex® 200 26/60 column (Cytiva™). Highly purified protein was aliquoted and stored at −80° C.
(§3) The SPR assay uses a Cytiva™ 8K or 8K+ biosensor instrument to measure the kinetics of peptide analytes binding to captured human TNFR1 extracellular domain (ECD) protein; peptide analytes are also evaluated for any off-target binding to human TNFR2 ECD protein in parallel. Recombinant human TNFR1 ECD and human TNFR2 ECD proteins, biotinylated via engineered C-terminal avi-tags, are immobilized to a regenerable streptavidin biosensor chip surface (Cytiva™ Biotin CAPture kit, Series S; cat. #28920234). Peptide analytes binding to immobilized human TNFR1 ECD protein and their subsequent dissociation are conducted in a buffer of 10 mM HEPES pH 7.4, 150 mM NaCl, 3 mM EDTA, 0.05% P20,2% DMSO under laminar flow conditions and measured in response units (RU), which are directly proportional to the accumulated mass on the surface of the biosensor chip; the biosensor chip surface is regenerated via Cytiva™ proprietary methods between the evaluation of each peptide analyte. […] The SPR assay determines the association and dissociation rate constants, kon and koff, for each peptide analyte and, from these values, calculates the binding affinity, […] reported in Table 2.

human TNFR2 ECD protein = biological target: T3, human TNFR2 ECD protein (Homo sapiens, UniProt P20333); experiment: SPR off-target binding (selectivity) to human TNFR2 ECD
T3 construct: HRV 3C protease cleavage site (C); 6His (C, cleaved yes); made in house; host or cells: Sf21 insect cells (baculovirus), secreted
T3 sequence (P20333 23-257): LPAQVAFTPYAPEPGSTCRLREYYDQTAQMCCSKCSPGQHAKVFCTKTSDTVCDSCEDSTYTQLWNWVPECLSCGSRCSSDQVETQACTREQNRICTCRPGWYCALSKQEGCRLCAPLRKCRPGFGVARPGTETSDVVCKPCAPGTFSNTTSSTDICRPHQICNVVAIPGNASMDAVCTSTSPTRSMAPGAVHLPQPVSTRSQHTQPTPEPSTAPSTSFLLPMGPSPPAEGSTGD
Procedure: as §1, §2, §3

SMILES | IC50 [1] [nM] | Kd [2] [nM] | Kd (human TNFR2 ECD protein) [nM]
CCCC[C@@H]1NC(=O)CSC[C@@H](C(N)=O)NC(=O)[C@H]([C@@H](C)c2c[nH]c3c(OC)cccc23)NC(=O)CN(C)C(=O)[C@H](Cc2ccc(O)cc2)NC(=O)[C@H](Cc2ccc(C(=O)O)cc2)NC(=O)[C@](C)(CO)NC(=O)[C@H](Cc2c[nH]c3c(Cl)cccc23)NC(=O)[C@H](Cc2ccncc2)NC(=O)[C@H](CC(N)=O)NC(=O)[C@H](CCC(=O)O)N(C)C(=O)[C@H](Cc2c[nH]c3ncccc23)NC(=O)[C@@H]2CNCCN2C(=O)[C@H](CC23CC(C2)C3)NC1=O [SEQ ID NO. 33] ({CH2CO}-[Nle][Ala(1-bicyclo(1.1.1)pentyl)][Pip(4-aza)][Trp(7-aza)][NMeE]N[4Pal][Trp(7-Cl)][αMeS][Phe(4-COOH)]Y[Sar][Trp(βS-Me,7-OMe)]C-NH2; thioether N-14) | 6.8 | 0.3 | > 1000
COc1cccc2c([C@H](C)[C@@H]3NC(=O)CN(C)C(=O)[C@H](Cc4ccc(O)cc4)NC(=O)[C@H](Cc4ccc(C(=O)O)cc4)NC(=O)[C@](C)(CO)NC(=O)[C@H](Cc4c[nH]c5c(Cl)cccc45)NC(=O)[C@H](Cc4ccncc4)NC(=O)[C@H](CC(N)=O)NC(=O)[C@H](CCC(=O)O)N(C)C(=O)[C@H](Cc4c[nH]c5ccccc45)NC(=O)[C@@H]4CNCCN4C(=O)[C@H](Cc4ccncc4)NC(=O)[C@H](CCCCNC(=N)N)NC(=O)[C@@H]4CC[C@@H](C4)NC3=O)c[nH]c12 [SEQ ID NO. 35] (cyclo([4Pal][Trp(7-Cl)][αMeS][Phe(4-COOH)]Y[Sar][Trp(βS-Me,7-OMe)][X1][hArg][4Pal][Pip(4-aza)]W[NMeE]N)) | 1 | 0.11 | > 1000
CCCC[C@@H]1NC(=O)CSC[C@@H](C(N)=O)NC(=O)[C@H]([C@@H](C)c2c[nH]c3c(OC)cccc23)NC(=O)CN(C)C(=O)[C@H](Cc2ccc(O)cc2)NC(=O)[C@H](Cc2ccc(C(N)=O)cc2)NC(=O)[C@](C)(CO)NC(=O)[C@H](Cc2c[nH]c3c(Br)cccc23)NC(=O)[C@H](Cc2ccncc2)NC(=O)[C@H](CC(N)=O)NC(=O)[C@H](CCC(=O)O)N(C)C(=O)[C@H](Cc2c[nH]c3ccccc23)NC(=O)[C@@H]2CC[C@@H](O)CN2C(=O)[C@H](Cc2ccncc2)NC1=O [SEQ ID NO. 39] ({CH2CO}-[Nle][4Pal][Pip(5R-OH)]W[NMeE]N[4Pal][Trp(7-Br)][αMeS][Phe(4-CONH2)]Y[Sar][Trp(βS-Me,7-OMe)]C-NH2; thioether N-14) | 0.9 | 0.05 | > 1000
CCCC[C@@H]1NC(=O)[C@@H]2CC[C@@H](C2)NC(=O)[C@H]([C@@H](C)c2c[nH]c3c(OC)cccc23)NC(=O)CN(C)C(=O)[C@H](Cc2ccc(O)cc2)NC(=O)[C@H](Cc2ccc(C(N)=O)cc2)NC(=O)[C@](C)(CO)NC(=O)[C@H](Cc2c[nH]c3c(Cl)cccc23)NC(=O)[C@H](Cc2ccc(OCC(=O)O)cc2)NC(=O)[C@H](CC(N)=O)NC(=O)[C@H](CCC(=O)O)N(C)C(=O)[C@H](Cc2c[nH]c3ccccc23)NC(=O)[C@@H]2CC[C@@H](O)CN2C(=O)[C@H](Cc2ccncc2)NC1=O [SEQ ID NO. 44] (cyclo([4Pal][Pip(5R-OH)]W[NMeE]NY(Carboxymethyl)[Trp(7-Cl)][αMeS][Phe(4-CONH2)]Y[Sar][Trp(βS-Me,7-OMe)][X1][Nle])) | 0.5 | 0.16 | > 1000
